The text below walks through data of ChEMBL document CHEMBL1126411, “Synthesis and HIV activity of phosphonate isosteres of D4T monophosphate” (Bioorg Med Chem Lett, 1992).

Structures are written as SMILES.

This experiment concerns MT4. In words: Concentration required for the inhibition of HIV replication by 50% in MT-4 cells. In kind it is functional, cell-based. As to conditions: Homo sapiens.
For orientation: IC50 means the concentration needed to halve the response being measured. A lower IC50 goes with higher potency. As to `Cc1cn([C@H]2C=C[C@@H](CCP(=O)(O)O)O2)c(=O)[nH]c1=O`, the IC50 is > 1000 µM.
The figure for `Cc1cn([C@H]2C=C[C@@H](OCP(=O)(O)O)O2)c(=O)[nH]c1=O` is 1.3 µM.
Consider `Cc1cn([C@H]2C=C[C@@H](OCP(=O)(O)O)C2)c(=O)[nH]c1=O`, for which the IC50 was > 1000 µM.
Compound `Cc1cn([C@H]2C=C[C@@H](CO)O2)c(=O)[nH]c1=O` [STAVUDINE] showed a concentration for half-maximal inhibition (IC50) of 1.2 µM.
